# From paper PMC3601661 (Steroids, 2012)
# Where two headings read alike, the source gives them in different places.
# Experiments:
# [1] = Sulforhodamine B; type: cell-based; conditions: human
# [2] = system: ZBTB16 mRNA; test: Quantitative PCR of the P4 responsive gene ZBTB16 in T47D cells; type: cell-based, human; conditions: 100 μM, 24 h
# [3] = system: prolactin (PRL) mRNA; test: Quantitative PCR of decidualization gene PRL in HESC; type: cell-based, human; conditions: 100 μM, 48 h, with E2 and 8-Br-cAMP
# [4] = system: MPA-induced mammary tumors; conditions: rats; cited from earlier work
# [5] = biological target: T1, progesterone receptor (PR) (Homo sapiens, UniProt P06401); test: PRE-luciferase reporter assay in T47D cells; type: cell-based; conditions: for PRE-luciferase Fold increase (10μM): compound 10 μM, over DMSO; for dose-dependent activation of PRE-luciferase: five increasing doses; for compound-induced PRE-luciferase activity in the presence of RU486: with 1 μM RU486, T47D cells
# T1 sequence (P06401 679-933 limits assumed): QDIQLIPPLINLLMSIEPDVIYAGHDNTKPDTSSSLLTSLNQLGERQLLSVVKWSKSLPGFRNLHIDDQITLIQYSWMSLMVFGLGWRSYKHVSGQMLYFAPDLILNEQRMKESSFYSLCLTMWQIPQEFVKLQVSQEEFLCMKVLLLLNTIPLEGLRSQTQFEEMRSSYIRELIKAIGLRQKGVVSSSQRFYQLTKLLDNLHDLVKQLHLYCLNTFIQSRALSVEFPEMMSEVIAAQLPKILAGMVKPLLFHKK
# [6] = biological target: T2, progesterone receptor ligand binding domain (PR-LBD-GST) (Homo sapiens, UniProt P06401); test: Progesterone receptor polarization competitive binding assay
# T2 sequence (P06401 675-933): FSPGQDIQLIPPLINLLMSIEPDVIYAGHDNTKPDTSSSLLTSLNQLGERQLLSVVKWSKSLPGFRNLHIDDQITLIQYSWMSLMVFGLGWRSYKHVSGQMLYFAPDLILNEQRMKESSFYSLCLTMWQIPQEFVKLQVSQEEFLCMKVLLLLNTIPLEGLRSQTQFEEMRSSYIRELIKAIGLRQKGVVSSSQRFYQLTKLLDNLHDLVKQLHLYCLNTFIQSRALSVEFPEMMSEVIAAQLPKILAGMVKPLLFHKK
# [7] = system: cannabinoid receptor 1 (CNR1) mRNA; test: Quantitative PCR of decidualization gene CNR1 in HESC; type: cell-based, human; conditions: 100 μM, 48 h, with E2 and 8-Br-cAMP
# [8] = system: PRA and PRB protein; test: Western blot of PRA and PRB expression in T47D cells; type: cell-based, human; conditions: P4 1 μM, flavonoids 100 μM, 1.5 h or 16 h
# [9] = biological target: T3, progesterone receptor (PR) (Homo sapiens, UniProt P06401); test: PRE-luciferase reporter assay in human endometrial stromal cells; type: cell-based; conditions: for dose-dependent activation of PRE-luciferase: HESC; for compound-induced PRE-luciferase in the presence of RU486: compound 20 μM with 1 μM RU486, HESC
# T3 sequence (P06401 1-933): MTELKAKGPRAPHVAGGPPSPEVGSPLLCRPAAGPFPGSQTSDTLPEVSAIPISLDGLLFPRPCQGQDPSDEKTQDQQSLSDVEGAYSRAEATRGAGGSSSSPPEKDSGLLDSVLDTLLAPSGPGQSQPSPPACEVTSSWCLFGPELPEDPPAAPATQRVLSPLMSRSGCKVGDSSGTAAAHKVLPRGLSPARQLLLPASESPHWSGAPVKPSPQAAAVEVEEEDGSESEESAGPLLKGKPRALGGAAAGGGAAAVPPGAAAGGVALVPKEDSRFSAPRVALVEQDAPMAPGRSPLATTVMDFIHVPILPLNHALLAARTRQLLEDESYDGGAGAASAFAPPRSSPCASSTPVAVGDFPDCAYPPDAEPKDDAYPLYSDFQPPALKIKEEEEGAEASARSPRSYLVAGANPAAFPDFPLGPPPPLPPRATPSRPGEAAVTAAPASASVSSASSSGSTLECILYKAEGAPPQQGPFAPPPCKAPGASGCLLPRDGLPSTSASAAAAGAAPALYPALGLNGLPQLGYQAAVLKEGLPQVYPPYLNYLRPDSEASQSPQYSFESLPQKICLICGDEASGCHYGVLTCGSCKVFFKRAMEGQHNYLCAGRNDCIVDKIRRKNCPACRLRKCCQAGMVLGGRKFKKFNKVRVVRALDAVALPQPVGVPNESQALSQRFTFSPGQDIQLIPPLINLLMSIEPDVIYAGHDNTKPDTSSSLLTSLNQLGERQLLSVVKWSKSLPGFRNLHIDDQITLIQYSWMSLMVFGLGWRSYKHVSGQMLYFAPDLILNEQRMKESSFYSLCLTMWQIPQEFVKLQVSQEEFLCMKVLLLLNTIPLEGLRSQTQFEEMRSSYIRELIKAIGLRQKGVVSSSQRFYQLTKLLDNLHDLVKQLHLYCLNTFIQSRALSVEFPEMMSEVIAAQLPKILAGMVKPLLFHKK
# [10] = system: T47D cells; test: Sulforhodamine B; type: cell-based
# [11] = biological target: T1, progesterone receptor (PR); test: PRE-luciferase in T47D cells in combination with P4; type: cell-based; conditions: 10 μM compound plus 100 nM P4, 24 h
# [12] = system: ovarian cancer; conditions: kaempferol intake, human observational studies; cited from earlier work
Compound,induction of ZBTB16 mRNA [2],induction of PRL expression [3],PRE-luciferase Fold increase (10μM) ([5]; T47D cells) [fold],dose-dependent activation of PRE-luciferase ([5]; T47D cells),compound-induced PRE-luciferase activity in the presence of RU486 [5],IC50 [6] [µM],CC50 at 24 h ([1]; T47D cells) [µM],downregulation of PRA and PRB protein expression [8],other results
"O=c1cc(-c2ccc(O)cc2)oc2cc(O)cc(O)c12 [Apigenin, apigenin]",did not induce,induced PRL expression,,,,,,,CC50 at 24 h [1]: > 20 µM; development of MPA-induced mammary tumors [4]: prevents the development
"O=C1C[C@@H](c2ccc(O)cc2)Oc2cc(O)cc(O)c21 [Naringenin, naringenin]",did not induce,induced PRL expression,1.9± 0.4,dose-dependently activated,significantly abrogate,6.9 ± 1.8,> 20,not observed,"PRE-luciferase activation versus solvent control ([5]; 20 μM, T47D cells): reached significance; induction of CNR1 expression [7]: did not induce CNR1 expression"
"CC(=O)[C@H]1CC[C@H]2[C@@H]3CCC4=CC(=O)CC[C@]4(C)[C@H]3CC[C@]12C [Progesterone, reference compound]",,,,dose-dependently activated,significantly abrogate,,,downregulation of PRB and more noticeably PRA,
"O=c1c(-c2ccc(O)cc2)coc2cc(O)ccc12 [Daidzein, daidzein]",,,1.0 ± 0.4,,,> 250,> 20,,
"CC(=O)O[C@]1(C(C)=O)CC[C@H]2[C@@H]3C[C@H](C)C4=CC(=O)CC[C@]4(C)[C@H]3CC[C@@]21C [MPA, medroxyprogesterone acetate, reference compound]",,,,,,,,,"PRE-luciferase activity compared with P4 ([5]; T47D cells, data not shown): comparable activity; dose-dependent activation of PRE-luciferase [9]: dose-dependently activated; compound-induced PRE-luciferase in the presence of RU486 [9]: significantly inhibited"
O=c1c(-c2ccc(O)cc2)coc2cc(O)cc(O)c12 [Genistein],,,2.2 ± 1.1,,,> 250,,,CC50 at 24 h [1]: > 20 µM
"COc1ccc(-c2coc3cc(O)cc(O)c3c2=O)cc1 [Biochanin A, biochanin A]",,,1.0 ± 0.1,,,,,,"IC50 ([6]; read-out: PR Binding IC50, pure compounds, purified PR): > 250 µM; CC50 [10]: > 20 µM"
"COc1ccc(-c2coc3cc(O)ccc3c2=O)cc1 [Formononetin, formononetin]",,,1.5 ± 0.6,,,> 250,> 20,,
"O=c1c(O)c(-c2ccc(O)cc2)oc2cc(O)cc(O)c12 [Kaempferol, kaempferol]",significantly induced,induced PRL expression,5.5 ± 1.8,dose-dependently activated,significantly abrogate,1.5 ± 0.4,> 20,not observed,concentration of highest PRE-luciferase activity from dose response curves ([5]; T47D cells): 7.5 µM; concentration above which PRE-luciferase activity started to decrease ([5]; likely due to cell death): > 10 µM; downregulation of P4-induced PRE-luciferase [11]: significantly downregulated; dose-dependent activation of PRE-luciferase [9]: dose-dependently activated; compound-induced PRE-luciferase in the presence of RU486 [9]: significantly inhibited; decrease of ovarian cancer incidence [12]: 40%
